Measured values taken from patent US7645740B2, “Peptide sequence found in Laminin 5 for treating skin impairments” (Laboratoires d'Anjou Centre National de la Recherche …, priority 2004, dated 2010).

What was measured:
NHK-old = assay: Cell adhesion of NHK-old to peptide co-immobilized with laminin 5; assay type: cell-based, human
Experimental: (§1) The peptide (variable quantities indicated) and laminin 5 (fixed quantity 0.2 mg) were co-immobilized in 96-well plates. 3×104 NHK-8 years and 3×104 NHK-63 years were deposited in each well and plates were incubated at 37° C. for 1 hour. After washing, attached cells were fixed and cell adhesion was measured as described in the methodology section. Cell adhesion in the presence of the peptide is given as a percentage of cell adhesion obtained with laminin 5 alone.
The effect of peptide TALRIRATYGEY (SEQ ID NO. 1) on adhesion to LN5 was verified with NHK-old (FIG. 16). NHK-young ([…]) was tested in parallel and 30,000 cells/well were used in both cases (NHK-old is always limiting as it is obtained in lower amounts). In general, the results obtained in the course of this experiment are less marked than those in the experiment presented in FIG. 14 since (1) the number of cells is lower (30,000 instead of 50,000) and (2) the peptide range tested is also smaller. […] This effect, less marked than the effect found with NHK-young, is probably linked to the decreased adhesion with age of NHK-old to peptide TALRIRATYGEY (SEQ ID NO.1) (FIG. 6).

NHKs = assay: Cell adhesion of NHKs to peptide co-immobilized with collagen IV; assay type: cell-based, human; details: collagen IV fixed quantity 0.06 mg, 50,000 cells per well, percentage of COL4 alone
Experimental: as §1, with “Peptides 1, 2 and 3” for “The peptide”, “collagen IV” for “laminin 5”, “0.06” for “0.2”, “5×104 NHKs” for “3×104 NHK-8 years and 3×104 NHK-63 years”, “alone. Cells were observed by phase contrast microscopy then photographed. Bar=50 μm.” for “alone.”
A decreasing range of LN5 (prepared in the laboratory) and COL4 (BD Biosciences, Le Pont de Claix, France) quantities was made up by successive dilution in PBS. These solutions were immediately distributed into a 96-well culture plate (Costar) at a rate of 100 μl per well. The experiment was conducted in exactly the same way as the experiment described in example 2. The results are given in the form of a graph with the absorbance values representing adhesion on the ordinate and the various substrate concentrations on the abscissa. […]
In order to analyse the effect of the peptide on cell adhesion to DEJ proteins, peptide TALRIRATYGEY (SEQ ID NO.1) (peptide 1) was co-immobilized with LN5 (FIG. 14) and COL4 (FIG. 15). The fixed quantity of matrix protein (LN5 and COL4) and the variable quantity of peptide are given on the graph (FIGS. 14 and 15). […]

[1] = tested on: HBL100 cells (human mammary epithelium); assay: Cell adhesion test to immobilized peptides, HBL100; assay type: cell-based
Experimental: Dose-dependent cell adhesion of cell line HBL100 to various peptides 1, 2 and 3. The peptides were immobilized in 96-well plates at the concentrations given on the abscissa. 8×10^4 cells were deposited in each well and plates were incubated at 37° C. for 1 hour. After washing, attached cells were fixed and cell adhesion was measured as described in the methodology section.
Peptides 1, 2 and 3 were used for the cell adhesion experiments. A range of 7 decreasing concentrations (100 micrograms/ml, 50 micrograms/ml, 25 micrograms/ml, 12.5 micrograms/ml, 6.25 micrograms/ml, 3.125 micrograms/ml and 1.562 micrograms/ml) was made up by successive dilution in PBS (Phosphate Buffer Saline, KH2PO4 1.54 mM; Na2HPO4 1.42 mM; NaCl-131 mM) using a starting solution at a concentration of 1 mg/ml. These solutions were immediately distributed onto a 96-well culture plate (Greinher, Dutscher, Brumath, France) at a rate of 100 μl per well. Plates were then placed at +4° C. for 16 to 18 hours. The solutions were then removed by turning the plates and each well was saturated with a 1% PBS-BSA solution (bovine serum albumin). Three additional wells without the substrate underwent the same treatment and were used as blanks.
Epithelial cells were detached from the culture dishes using a trypsin/EDAT solution (0.05-0.02%) then suspended in DMEM medium without additives for the cell lines and in KBM-2 without additive for human keratinocytes. The number of seeded cells per well is given in the graphs (50,000 to 100,000 cells per well).
After cell seeding, the multi-well plates were placed in an incubator at 37° C. under 5% CO2. After incubation for 30 to 60 minutes, cells were observed under a phase contrast microscope in order to verify that the test was conducted correctly. The adhesion medium was then removed and each well was washed in a sterile PBS solution to remove non-adhering cells. The remaining cells, attached to the substrate, were then fixed using a solution of 1% glutaraldehyde in PBS for 15 minutes. The glutaraldehyde solution as removed and the cells were stained with a crystal violet solution diluted to 1% in distilled water for 30 minutes.
After rinsing in water several times, cells were permeabilized by means of a 0.02% triton solution for 15 minutes in order to solubilize the crystal violet. Absorbances were read at 570 nm using an ELISA plate reader (MR500, Dynatech, Guernsey, Channel Islands). Each experimental point was carried out in triplicate. The blank value represented the mean absorbance of 3 control wells (BSA). This was subtracted from each of the optical density values for the experimental points. We then calculated the mean for the three absorbance values for each of the triplicate samples.
The results are presented in the form of a graph with the absorbance values on the ordinate and the various substrate concentrations on the abscissa. Attached cells were photographed by phase contrast microscopy.
The following cells from epithelial cell lines were used initially (commonly used in preliminary studies on cell adhesion): • line HT1080 cells (human fibrosarcoma), American Type Culture Collection CCL-121. • line HB100 cells (human mammary epithelium), American Type Culture Collection HTB-124. • line A431 cells (skin epitheliods), American Type Culture Collection CRL-1555.

“TALRIRATYGEY (Human laminin 5) [Peptide 1]” was tested, and the “effect on adhesion of NHK-old to LN5 (co-immobilized)” value (NHK-old; NHK-63 years, 30,000 cells/well, laminin 5 fixed quantity 0.2 mg) was “potentializing effect”, the “effect on NHK-old adhesion to LN5 compared with NHK-young” value (NHK-old; NHK-old vs NHK-young, 30,000 cells/well) was “less marked” and the “effect on adhesion of keratinocytes to COL4 (co-immobilized)” value (NHKs) was “no significant effect”. The “cell adhesion to immobilized peptide” value ([1]; HBL100, 0 to 10 micrograms immobilized peptide, 8×10^4 cells per well, 1 hour 37° C., absorbance 570 nm) was “led to cell adhesion”, the “immobilized peptide quantity at which adhesion occurred” value ([1]; HBL100, FIG. 2) was 0.31 micrograms and the “immobilized peptide quantity at which maximum adhesion was achieved” value ([1]; HBL100, FIG. 2) was 1.25 micrograms.
